The values below come from ChEMBL document CHEMBL1201862, “PubChem BioAssay data set” (2004).

Active and inactive are the calls of the source. For most assays here, no stated cut-off is given here; in the data, actives have a measured EC50 and inactives only a lower limit.

One assay deals with Streptococcus. Description: Group A Streptococcus viability loss, dose response, counter-screen for streptokinase expression inhibitor project, luminescence, BacTiterGlo (AID 1915).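 Further: potency for reduction of bacterial viability or growth.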 The class given is functional, organism-based. On the technique in general: The purpose of a counterscreen is to sort out artefacts and off-target activity.
The test system of assay [1] is Streptococcus sp. 'group A'. Description: growth inhibition of control SK(-) GAS strain, dose response, counter-screen for streptokinase expression inhibitor project, luminescence, kanamycin, BacTiterGlo, confirmation (AID 1900). The class given is functional, organism-based.
A further assay deals with T1, Streptokinase A (Streptococcus pyogenes serotype M1, UniProt P10520).
T1 sequence (P10520 whole entry): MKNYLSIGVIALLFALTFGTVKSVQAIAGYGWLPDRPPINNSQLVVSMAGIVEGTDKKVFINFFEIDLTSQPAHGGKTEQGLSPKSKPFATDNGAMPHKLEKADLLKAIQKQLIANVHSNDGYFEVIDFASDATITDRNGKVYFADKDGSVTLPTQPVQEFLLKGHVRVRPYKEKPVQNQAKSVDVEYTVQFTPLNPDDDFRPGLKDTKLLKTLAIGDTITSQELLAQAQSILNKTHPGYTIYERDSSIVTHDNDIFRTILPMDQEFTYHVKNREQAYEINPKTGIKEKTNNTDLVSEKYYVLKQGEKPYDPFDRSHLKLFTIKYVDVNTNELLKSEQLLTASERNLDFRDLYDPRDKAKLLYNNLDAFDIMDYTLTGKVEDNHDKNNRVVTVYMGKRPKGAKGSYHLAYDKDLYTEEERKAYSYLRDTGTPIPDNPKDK
The assay is described as follows: S. pyogenes streptokinase expression inhibitors, potency, dose response, plasminogen activation absorbance, OD405 (AID 1914).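 Further: secreted streptokinase activity via plasminogen activation per viability signal from cell pellet.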 Format: functional, Streptococcus pyogenes M1 GAS.

Assay [2] has as its target T2, Corticotropin-releasing factor receptor 2/Corticotropin-releasing factor-binding protein (Homo sapiens, UniProt P24387+Q13324).
T2 sequence (Q13324 whole entry): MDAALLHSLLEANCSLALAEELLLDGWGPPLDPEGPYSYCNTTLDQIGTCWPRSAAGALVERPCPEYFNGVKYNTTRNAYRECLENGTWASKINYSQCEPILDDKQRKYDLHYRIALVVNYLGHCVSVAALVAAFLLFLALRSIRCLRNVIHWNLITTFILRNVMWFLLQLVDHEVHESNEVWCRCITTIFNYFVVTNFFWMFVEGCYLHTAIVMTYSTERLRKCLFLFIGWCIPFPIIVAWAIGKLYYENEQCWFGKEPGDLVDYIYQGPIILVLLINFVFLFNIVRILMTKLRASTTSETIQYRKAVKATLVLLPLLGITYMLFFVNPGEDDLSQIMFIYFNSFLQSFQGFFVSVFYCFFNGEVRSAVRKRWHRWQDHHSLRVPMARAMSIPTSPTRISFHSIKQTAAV
T2 sequence (P24387 whole entry): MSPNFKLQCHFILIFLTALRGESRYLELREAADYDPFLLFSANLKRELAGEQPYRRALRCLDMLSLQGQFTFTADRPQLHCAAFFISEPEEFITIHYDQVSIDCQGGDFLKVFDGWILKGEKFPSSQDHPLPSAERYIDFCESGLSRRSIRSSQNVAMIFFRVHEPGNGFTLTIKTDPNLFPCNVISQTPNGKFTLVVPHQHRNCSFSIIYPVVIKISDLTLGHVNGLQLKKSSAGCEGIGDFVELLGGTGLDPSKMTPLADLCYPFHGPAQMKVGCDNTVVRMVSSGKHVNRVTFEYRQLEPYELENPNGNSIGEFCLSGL
Description: activators of CRF receptor 2 with binding protein – uHTS hits, confirmation (AID 602473). Format: functional. The conditions noted are these: read-out: EC50_Mean.

The next assay has as its system H9c2. Description: cells. The class given is functional, cell-based. Conditions: Rattus norvegicus, H9c2, Myocardium.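 Further: confirmatory concentration-response retest of ultra-high-throughput screening hits for modulation of myocardial damage; cell death induced by hydrogen peroxide oxidative stress; compound pretreatment for 60 min then peroxide exposure for 2 h; potency is for protecting the cells against peroxide damage rather than for killing them.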
Assay [3] concerns the target T2, Corticotropin-releasing factor receptor 2/Corticotropin-releasing factor-binding protein. The assay is described as follows: Dose Response confirmation of uHTS hits for small molecule antagonists of the CRF-binding protein and CRF-R2 receptor complex. Format: functional. Conditions: read-out: IC50_Mean.
The nature of assay [4]: C. albicans growth with fluconazole, confirmation, fluorescence, retest (AID 2467). The class given is functional, cell-based.
The nature of assay [5]: NIH-3T3 fibroblast cytotoxicity, dose response, cytotoxicity control, cell-based, fluorescence, Alamar Blue, secondary assay (AID 2327).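 Further: NIH-3T3 mouse fibroblasts cultured with fluconazole at 8 µg/mL.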 The class given is functional. Background: Alamar Blue is a resazurin reagent that responds to reducing activity.
For assay [6], the target named is T3, Zinc finger protein mex-5 (Caenorhabditis elegans, UniProt Q9XUB2).
T3 sequence (Q9XUB2 whole entry): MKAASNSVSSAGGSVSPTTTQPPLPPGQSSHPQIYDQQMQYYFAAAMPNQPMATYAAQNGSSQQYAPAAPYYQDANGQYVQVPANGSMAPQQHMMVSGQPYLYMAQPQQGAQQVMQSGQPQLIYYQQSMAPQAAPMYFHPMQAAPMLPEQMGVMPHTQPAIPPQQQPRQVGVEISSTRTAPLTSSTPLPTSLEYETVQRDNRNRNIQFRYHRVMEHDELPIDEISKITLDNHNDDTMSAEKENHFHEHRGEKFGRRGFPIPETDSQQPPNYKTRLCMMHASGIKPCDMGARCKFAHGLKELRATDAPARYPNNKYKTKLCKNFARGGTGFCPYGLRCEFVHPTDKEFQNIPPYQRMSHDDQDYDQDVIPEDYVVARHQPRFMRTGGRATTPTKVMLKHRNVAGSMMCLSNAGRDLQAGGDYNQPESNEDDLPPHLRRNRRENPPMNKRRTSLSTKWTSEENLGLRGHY
The assay is described as follows: MEX-5/TCR-2 RNA interaction inhibitors, dose response, biochemical, C. elegans, fluorescence polarization (AID 1960).

The target in assay [7] is T4, RNA-binding protein pos-1 (Caenorhabditis elegans, UniProt G5EF15).
T4 sequence (G5EF15 whole entry): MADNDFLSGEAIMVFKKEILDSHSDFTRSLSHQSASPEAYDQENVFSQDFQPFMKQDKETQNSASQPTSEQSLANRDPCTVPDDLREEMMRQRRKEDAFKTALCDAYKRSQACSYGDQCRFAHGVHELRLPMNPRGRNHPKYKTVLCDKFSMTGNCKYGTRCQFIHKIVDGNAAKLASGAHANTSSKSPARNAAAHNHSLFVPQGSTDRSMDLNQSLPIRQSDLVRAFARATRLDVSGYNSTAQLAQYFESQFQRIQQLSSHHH
The assay is described as follows: inhibitors of POS-1/mex-3 RNA binding, dose response, biochemical, fluorescence polarization (AID 1964).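 Further: purified POS-1 fused to maltose binding protein made in E. coli; potency of compounds blocking POS-1 binding to fluorescent RNA.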 For orientation: In fluorescence polarisation assays a small probe gives low polarisation when free and higher when bound to something large.

For the molecule `COc1cc(/C=C2\SC(Nc3cccnc3)=NC2=O)cc(OC)c1OC`, the EC50 was 68.5 µM (active) with Streptococcus, 36.8 µM (active) in assay [1] and > 150 µM (not active) on Streptokinase A.
With `Cc1nn(C)cc1C(C(=O)NC1CCCCC1)N(C(=O)Cc1cccs1)c1ccc(Cl)cc1` (configuration not stated), the EC50 in assay [2] is 12 µM (active). Moreover, the IC50 in the assay on H9c2 was 15.2 µM (active).
With `COc1ccc2nc(O)c(CN(CC3CCCO3)S(=O)(=O)c3ccccc3F)cc2c1` (configuration not stated), in the assay with H9c2, the IC50 is 15.5 µM (active).
On the same count and under the same terms, under `O=C(NCCN1CCOCC1)c1cnn2c(-c3ccccc3)cc(-c3ccccc3)nc12` stands > 79 µM (inactive).
Regarding `CSc1nc2cc(Cl)ccc2s1`, the IC50 in assay [3] is > 47.1 µM (inactive). For the same molecule, in assay [2], the EC50 is > 53 µM (inactive).
The like results for `CC1CCN(C(=O)C2CCN(S(=O)(=O)c3cccnc3)CC2)CC1` were, in that order, > 47.1 µM (inactive) and > 53 µM (inactive).
Take `Nc1nc(CN2CCC(Cc3ccccc3)CC2)nc(Nc2ccccc2)n1`: the values for the EC50 (in the assay with Streptococcus; in [1]; on Streptokinase A) were > 150 µM (not active), 14.8 µM (active) and > 150 µM (not active), respectively.
On to `CCCC(=O)NCCc1ccc(F)cc1`, for which the EC50 (in the assay on Streptococcus; in [1]; on Streptokinase A) was > 150 µM (not active) throughout.
Turning to `C=C(C)CSc1nc2c(cc1C#N)CCC2`, in assay [3], the IC50 is > 47.1 µM (inactive). In addition, the EC50 in [2] is > 53 µM (inactive).
Regarding `O[C@@H]1CCCN2CCc3c([nH]c4ccccc34)[C@H]12`, the EC50 (in the assay with Streptococcus; in assay [1]; on Streptokinase A) was > 150 µM (not active) throughout.
With `Cc1ccn(C(=O)c2ccc(NC(=O)C3CCCCC3)cc2)n1`, the IC50 in assay [3] was > 47.1 µM (inactive). Further, the EC50 in assay [2] is > 53 µM (inactive).
For `O=C(COc1ccc(Cl)cc1Cl)Nc1ccccc1NS(=O)(=O)c1cccs1` the same measures were > 47.1 µM (inactive) and 33.1 µM (active).
`COC(=O)c1ccc(NC(=O)COC(=O)CSc2nc(C)cc(C)n2)cc1`: the IC50 in assay [3] is > 47.1 µM (inactive). Further, the EC50 in [2] is > 53 µM (inactive).
For the molecule `CC(C)(C)NS(=O)(=O)c1ccc(NS(=O)(=O)Cc2ccccc2)cc1`, the EC50 (in the assay with Streptococcus; in [1]; on Streptokinase A) was > 150 µM (not active) in each case.
In the case of `COc1ccc(N/C=C(\C#N)c2nc3ccccc3n2C)c(OC)c1`, the IC50 with H9c2 was > 79 µM (inactive).
Regarding `O=C(Nc1scc(-c2ccc(Br)cc2)c1C(=O)O)c1ccccc1F`, the EC50 was 11 µM (active) with Streptococcus, 2.83 µM (active) in assay [1] and 9.9 µM (active) at Streptokinase A.
As to `Cc1ccc(C(=O)Oc2ccc(Cl)c3cccnc23)cc1[N+](=O)[O-]`, the IC50 in the assay on H9c2 was > 79 µM (inactive).
For `O=C(NNC(=O)c1cc2ccccc2cc1O)Nc1ccccc1F`, the EC50 in [4] is > 38 µM (not active); in assay [5], > 160 µM (inactive).
As to `COc1ccccc1Oc1c[nH]nc1-c1ccc(OCC(=O)NN)cc1O`, the EC50 in assay [6] is 120 µM (active); in assay [7], > 300 µM (not active); in the assay on Streptococcus, > 150 µM (not active); in assay [1], > 150 µM (not active); on Streptokinase A, > 150 µM (not active).
In the case of `CCCCNC(=O)c1cn(-c2ccc(OCC)cc2)c(=O)c2cc(OC)c(OC)cc12`, the IC50 in the assay with H9c2 was 15.3 µM (active).
Regarding `COc1ccc(C(C(=O)NC2CCCCC2)N(Cc2cccs2)C(=O)Cc2c[nH]c3ccccc23)cc1OC` (configuration not stated), the IC50 was > 47.1 µM (inactive) in assay [3] and > 79 µM (inactive) in the assay on H9c2. Further, the EC50 in assay [2] was > 53 µM (inactive).
Consider `Cc1cccc(NC(=O)c2[nH]cnc2C(=O)NCCCCCCNC(=O)c2nc[nH]c2C(=O)Nc2cccc(C)c2)c1`, for which the IC50 in the assay on H9c2 is 14.4 µM (active).
On to `O=C(ONC1=NCCCCC1)c1cccc([N+](=O)[O-])c1`, for which the EC50 in [4] was 2.12 µM (active); in assay [5] it was > 150 µM (inactive).
On to `O=C(COC(=O)Cn1[nH]c(=O)c2ccccc2c1=O)Nc1ncc(Cl)cc1Cl`, for which the IC50 in the assay on H9c2 is > 79 µM (inactive).
In the case of `CCn1c(SCC(=O)N2CCCCC2)nc2c(c1=O)SCC2`, the IC50 in assay [3] is > 47.1 µM (inactive). Moreover, the EC50 in assay [2] was > 53 µM (inactive).
Consider `CCN(C[C@H]1N[C@@](Cc2ccccc2)(C(=O)OC)[C@H]2C(=O)N(C)C(=O)[C@@H]12)S(=O)(=O)c1ccc(OC)cc1`, for which the IC50 in the assay with H9c2 was 7.53 µM (active).
On to `Cc1cc(NC(=O)CN2C(=O)NC(CC(C)C)C2=O)no1` (configuration not stated), for which the IC50 in assay [3] was > 47.1 µM (inactive). Moreover, the EC50 in assay [2] was > 53 µM (inactive).
Regarding `CN(CC(=O)Nc1cccc(F)c1)C(=O)Cc1nnc(O)c2ccccc12`, the IC50 in the assay with H9c2 is 25.6 µM (active).
With `CC(C)c1ccc(/C=N/NC(=O)c2cc(-c3cccc([N+](=O)[O-])c3)[nH]n2)cc1`, in assay [3], the IC50 was > 47.1 µM (inactive). In addition, the EC50 in assay [2] is > 53 µM (inactive).
`CCO/C(O)=C1\C(C)=NC(C)=C(C(=O)OCCNC(=O)c2cccnc2)C1c1cccc([N+](=O)[O-])c1` (configuration not stated): the IC50 with H9c2 is > 79 µM (inactive).
`C=C(C)CNC(=S)N/N=C1\CCCCc2ccccc21`: the EC50 in assay [4] was 6.24 µM (active); in assay [5], 62.5 µM (active).
Regarding `COCCn1c(-c2ccccc2)cs/c1=N\c1cccnc1`, the IC50 in [3] is 22.3 µM (active). Moreover, the EC50 in assay [2] was > 53 µM (inactive).
Consider `Cc1ccsc1/C=N/NS(=O)(=O)c1ccc([N+](=O)[O-])cc1`, for which the figures for the EC50 in [4] and in assay [5] were 1.81 µM (active) and > 150 µM (inactive), respectively.
Turning to `CN(/C(=N/S(=O)(=O)c1cccs1)c1ccccc1)c1ccc(O)cc1`, the EC50 in assay [4] is > 38 µM (not active); in assay [5], > 150 µM (inactive).
`C[C@]12CC[C@H]3[C@@H](CC[C@H]4C[C@@H](O)CC[C@@]43C)[C@@H]1C[C@@H](O)C2`: in the assay with H9c2, the IC50 was > 79 µM (inactive).
For the molecule `Cc1c(C#N)c(N)nc2c3c(sc12)NC(=O)CC3c1ccccc1` (configuration not stated), in the assay on H9c2, the IC50 was 32.6 µM (inactive).
For the molecule `O=C1NCCN1CCNS(=O)(=O)c1cc(C(F)(F)F)cc(C(F)(F)F)c1`, the EC50 was > 38 µM (not active) in assay [4] and > 150 µM (inactive) in [5].
